Source: ChEMBL document CHEMBL1123077, “N-2,3-Butadienyl-1,4-butanediamine derivatives: potent irreversible inactivators of mammalian polyamine oxidase” (J Med Chem, 1985)

How the values were obtained:
[1] = Half life in pig liver at 50 uM; assay type: ADME, organism-based, Sus scrofa; conditions: pig liver (preparation not specified)
[2] = Half life in pig liver at 12 uM; assay type: ADME, organism-based, Sus scrofa; conditions: pig liver (preparation not specified)

**Q.** For `C=CCNCCCCN`, which half-life at 50 µM [1] is on record?
**A.** 35 min

**Q.** With `C=CCNCCCCNC` as the molecule, how does the half-life at 12 µM [2] read?
**A.** 12 min
